# Results reported in patent publication US12649748B2, “Wee1 inhibitor and use thereof” (JIANGSU TASLY DIYI PHARMACEUTICAL CO., LTD., priority 2021, dated 2026).
# Experiments:
# [1] = target: T1, CYP2B6 (Homo sapiens, UniProt P20813); experiment: Inhibition of cytochrome P450, 2B6; assay type: in vitro ADME; details: CYP2B6 enzyme, pH 7.4, compound concentration 10 μM, read-out: CYP inhibition/% 2B6
# T1 sequence (P20813 1-491): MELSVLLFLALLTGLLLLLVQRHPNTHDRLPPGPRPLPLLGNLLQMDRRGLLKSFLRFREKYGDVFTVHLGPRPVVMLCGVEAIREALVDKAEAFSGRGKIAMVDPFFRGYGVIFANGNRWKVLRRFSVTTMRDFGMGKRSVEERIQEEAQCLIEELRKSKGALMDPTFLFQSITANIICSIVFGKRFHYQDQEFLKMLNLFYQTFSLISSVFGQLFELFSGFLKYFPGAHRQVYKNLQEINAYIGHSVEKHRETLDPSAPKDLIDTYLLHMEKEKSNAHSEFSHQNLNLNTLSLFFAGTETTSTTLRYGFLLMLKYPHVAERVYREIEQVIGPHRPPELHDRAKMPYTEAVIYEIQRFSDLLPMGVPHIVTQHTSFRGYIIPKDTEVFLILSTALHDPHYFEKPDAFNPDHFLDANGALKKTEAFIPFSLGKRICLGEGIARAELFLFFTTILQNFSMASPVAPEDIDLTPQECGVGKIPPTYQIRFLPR
# Procedure: Enzymatic experiments were performed to quantify the inhibition of CYP450 enzyme activity of each isoform of CYP450 by small molecule inhibitors through fluorescence generated by the oxidation of the substrate by cytochrome P450. […] The Solution B composition used for the experiment was: 40 U/mL G6PDH (Sigma-aldrich, Cat #G6378). The substrate mix was 0.05× Solution A, 0.01× Solution B, 50 mM Potassium Phosphate, 0.01 mM BOMCC/0.01 mM EOMCC/0.001 mM DBOMF. […] The data were analyzed and processed using GraphPad Prism 6 software to obtain IC50 values.
# [2] = target: T2, hERG potassium channel (Homo sapiens, UniProt Q12809); experiment: hERG potassium channel inhibition assay (patch clamp, CHO hERG cells); assay type: cell-based; details: CHO cells overexpressing hERG potassium channel, whole cell patch clamp
# T2 construct: expressed in transfected cells; host or cells: CHO (Chinese hamster ovary) stably transfected cell line
# T2 sequence (Q12809 whole entry): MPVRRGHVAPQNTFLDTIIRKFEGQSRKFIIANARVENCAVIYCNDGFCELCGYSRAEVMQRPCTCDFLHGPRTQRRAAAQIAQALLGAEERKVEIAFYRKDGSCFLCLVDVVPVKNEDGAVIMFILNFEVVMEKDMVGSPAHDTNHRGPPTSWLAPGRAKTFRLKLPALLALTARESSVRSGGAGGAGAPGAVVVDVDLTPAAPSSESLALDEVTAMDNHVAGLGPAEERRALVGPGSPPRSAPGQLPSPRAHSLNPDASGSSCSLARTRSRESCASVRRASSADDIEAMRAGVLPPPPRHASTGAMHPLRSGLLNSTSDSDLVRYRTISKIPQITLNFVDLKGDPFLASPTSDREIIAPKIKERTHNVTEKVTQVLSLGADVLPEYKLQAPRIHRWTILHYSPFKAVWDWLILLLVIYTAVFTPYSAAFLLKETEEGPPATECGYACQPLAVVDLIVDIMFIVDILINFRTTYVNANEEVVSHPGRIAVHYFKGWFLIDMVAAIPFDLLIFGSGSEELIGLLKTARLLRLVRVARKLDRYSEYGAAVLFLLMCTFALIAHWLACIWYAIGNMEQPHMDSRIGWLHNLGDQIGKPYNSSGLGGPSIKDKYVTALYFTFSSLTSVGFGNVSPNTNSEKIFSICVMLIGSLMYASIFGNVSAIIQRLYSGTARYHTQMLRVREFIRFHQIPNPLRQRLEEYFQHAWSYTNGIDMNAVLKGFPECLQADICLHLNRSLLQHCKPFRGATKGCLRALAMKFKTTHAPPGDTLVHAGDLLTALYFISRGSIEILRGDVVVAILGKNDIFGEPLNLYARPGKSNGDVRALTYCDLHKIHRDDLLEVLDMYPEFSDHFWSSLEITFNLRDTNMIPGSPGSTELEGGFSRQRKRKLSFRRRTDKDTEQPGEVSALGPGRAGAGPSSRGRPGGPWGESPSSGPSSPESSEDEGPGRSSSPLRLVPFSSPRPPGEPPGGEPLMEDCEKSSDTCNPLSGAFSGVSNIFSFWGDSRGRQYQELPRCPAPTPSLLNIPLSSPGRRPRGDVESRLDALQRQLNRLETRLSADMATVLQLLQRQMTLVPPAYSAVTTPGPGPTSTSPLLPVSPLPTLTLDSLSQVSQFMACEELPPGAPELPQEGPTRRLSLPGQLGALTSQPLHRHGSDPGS
# Procedure: The cell line used for the patch clamp assay was a 10th generation CHO cell overexpressing hERG potassium channel cDNA.
# CHO hERG cells were cultured in Petri dishes or flasks at 37° C. in a 5% CO2 incubator. Cells were dropped onto circular slides 24-48 hours prior to electrophysiological experiments and cultured in cell culture medium and used for experiments after the cells had been adhered.
# Compound powders are dissolved in the extracellular solution and are subjected to a routine 5 to 10 minute sonication and shaking to ensure complete dissolution of the compound.
# The final concentrations of compounds used for electrophysiological assays were 5, 20 μM and the final concentration of DMSO was 0.1%.
# Cell membrane currents were recorded using a HEKA EPC-10 USB patch-clamp amplifier (HEKA Elektronik, Germany).
# 1) A coverslip with a large number of uniformly growing individual CHO hERG cells on its surface was taken. Place in a continuous recording cell on an inverted microscope, perfused with extracellular fluid (approximately 1 ml per minute) and recorded continuously, waiting for the current to stabilize. […]
# 3) The extracellular solution containing the drug to be tested was then perfused and recorded until the inhibitory effect of the drug on the hERG current reached a steady state, at which point the peak tail current was the post-drug current value. […]
structure (smiles),measurement,setting,value
CN1CCN(c2ccc(Nc3ncc4cnn(-c5cccc(N=S(C)(C)=O)n5)c4n3)cc2)CC1 [Compound 1],"inhibition at 30 min, 10 µM",[1],4.38%
same,inhibition at 5 µM,[2]; 5 μM,5.07%
same,inhibition at 20 µM,[2]; 20 μM,15.1%
